Tests used:
Plasmodium falciparum [1] = test: Antimalarial activity against synchronous ring stage Plasmodium falciparum 3D7 infected in human Erythrocyte assessed as inhibition of parasite growth incubated for 48 hrs by [3H]-hypoxanthine incorporation assay; format: functional, organism-based; conditions: 3D7, Erythrocyte
Plasmodium falciparum [2] = test: Antimalarial activity against synchronous ring stage Plasmodium falciparum 3D7 infected in human Erythrocyte assessed as inhibition of parasite growth incubated for 96 hrs by [3H]-hypoxanthine incorporation assay; format: functional, organism-based; conditions: 3D7, Erythrocyte
[3] = Selectivity ratio of IC50 for antimalarial activity against synchronous ring stage Plasmodium falciparum 3D7 infected in human Erythrocyte assessed as inhibition of parasite growth incubated for 48 hrs by [3H]-hypoxanthine incorporation assay to IC50 for antimalarial activity against synchronous ring stage Plasmodium falciparum 3D7 infected in human Erythrocyte assessed as inhibition of parasite growth incubated for 48 hrs by [3H]-hypoxanthine incorporation assay; format: functional
[4] = Cytotoxicity against human NFF cells assessed as reduction in cell viability incubated for 72 hrs by SRB assay; format: toxicity, cell-based
[5] = Selectivity index, ratio of IC50 for cytotoxicity against human NFF cells to IC50 for antimalarial activity against synchronous ring stage Plasmodium falciparum 3D7 infected in human Erythrocyte assessed as inhibition of parasite growth incubated for 96 hrs; format: toxicity, cell-based; conditions: read-out: Ratio IC50

Row | SMILES | IC50 (Plasmodium falciparum [1]) [µM] | IC50 (Plasmodium falciparum [2]) [µM] | Ratio IC50 [3] | IC50 at 72 h [4] [µM] | selectivity ratio at 96 h [5]
1 | O=S(=O)(c1nnc(N2CCc3ccccc32)o1)C1CCCCC1 | > 10 | 1.12 | >9 | > 25 | > 26
2 | O=S(=O)(CC1(C(F)(F)F)CCC1)c1nnc(N2CCOCC2)o1 | 17 | 4.3 | 4 | – | –
3 | O=S(=O)(CC12CC3CC(CC(C3)C1)C2)c1nnc(N2CCCCC2)o1 | 13.7 | 0.4 | 35 | 30.5 | 76
4 | O=S(=O)(c1ccc(Cl)c(Cl)c1)c1nnc(N2CCOCC2)o1 | 13.1 | 24.6 | 0.5 | – | –
5 | O=S(=O)(CC1CCCCC1)c1nnc(N2CCOCC2)o1 | 17.6 | 0.39 | 45 | 59 | 151
6 | C[C@@H]1CN(c2nnc(S(=O)(=O)C3CCCCC3)o2)C[C@H](C)O1 | > 25 | 0.29 | >85 | > 100 | > 345
7 | O=S(=O)(c1nnc(N2CCOc3ccccc32)o1)C1CCCCC1 | 4.65 | 2.06 | 2.3 | 21.4 | 10
8 | O=S(=O)(c1nnc(N2C3CCC2CC3)o1)C1CCCCC1 | 5.76 | 0.83 | 7 | 33.5 | 40
9 | O=S(=O)(c1nnc(N2CC3CCC2C3)o1)C1CCCCC1 (racemic) | > 25 | 0.56 | >45 | > 100 | > 179
10 | CC1CCCN(c2nnc(S(=O)(=O)C3CCCCC3)o2)C1 (racemic) | > 12.5 | 0.1 | >125 | > 100 | > 1000
11 | O=S(=O)(c1nnc(N2CCNCC2)o1)C1CCCCC1 | 57.9 | 3.58 | 16 | – | –
12 | O=S(=O)(c1nnc(N2C3CCCC2CC3)o1)C1CCCCC1 | > 25 | 0.41 | >61 | > 100 | > 246
13 | O=S(=O)(Cc1ccc(Cl)c(Cl)c1)c1nnc(N2CCOCC2)o1 | 6.6 | 4.2 | 1.6 | – | –
14 | CC(C)(C)OC(=O)N1CCC(S(=O)(=O)c2nnc(N3CCOCC3)o2)CC1 | > 25 | 5.05 | >5 | > 100 | > 20
15 | O=S(=O)(c1nnc(N2CC3(CCOCC3)C2)o1)C1CCCCC1 | > 50 | 0.11 | >476 | > 100 | > 909
16 | O=S(=O)(c1nnc(N2CCOCC2)o1)C1CCOCC1 | > 50 | 7.09 | >7 | > 100 | > 14
17 | CC1(C)CN(c2nnc(S(=O)(=O)C3CCCCC3)o2)CCO1 | > 25 | 0.24 | >105 | > 100 | > 417
18 | O=S(=O)(c1nnc(N2CC3CC2CO3)o1)C1CCCCC1 (racemic) | > 50 | 1.58 | >32 | > 100 | > 63
19 | O=S(=O)(c1nnc(N2CCCCC2)o1)C1CCCCC1 | > 12.5 | 0.4 | >32 | > 100 | > 250
20 | CC1CN(c2nnc(S(=O)(=O)C3CCCCC3)o2)CCO1 (racemic) | > 25 | 0.38 | >66 | > 100 | > 263
21 | O=S(=O)(c1nnc(N2CCCC2)o1)C1CCCCC1 | > 50 | 3.53 | >14 | > 100 | > 28
22 | O=S(=O)(c1nnc(N2CC3CCC(C2)O3)o1)C1CCCCC1 | > 50 | 0.1 | >500 | > 100 | > 1000
23 | CC(C)(C)CS(=O)(=O)c1nnc(N2CCOCC2)o1 | > 10 | 1.34 | >8 | > 100 | > 79
24 | O=S(=O)(c1nnc(N2CCCC3(COC3)C2)o1)C1CCCCC1 | > 50 | 0.54 | >93 | > 100 | > 185
25 | O=S(=O)(c1nnc(N2CCOCC2)s1)C1CCCCC1 | > 50 | > 50 | – | – | –
26 | COC1CCN(c2nnc(S(=O)(=O)C3CCCCC3)o2)CC1 | > 50 | 0.69 | >72 | > 100 | > 145
27 | Cc1ccc(C)c(C[S+]([O-])c2nnc(N3CCOCC3)o2)c1 (configuration not stated) | 16.8 | 13.7 | 1 | – | –

— ChEMBL document CHEMBL5614431, “Discovery of 1,3,4-oxadiazoles with slow-action activity against Plasmodium falciparum malaria parasites” (Eur J Med Chem, 2024)
